Data as given in patent US20200253926A1, “THERAPEUTIC COMBINATIONS” (SUPERSALUS, INC., priority 2019, published 2020).
Where a name gives a salt, the structure may show the parent alone. One block for each molecule: values may come before it.

How the values were obtained:
[1] = test system: aortic rings; conditions: cited from earlier work
[2] = test system: NO2 levels; conditions: compared with vehicle treated animals; cited from earlier work
[3] = test system: H2S levels; conditions: compared to vehicle treated animals; cited from earlier work
[4] = Hygroscopicity by dynamic vapor sorption (DVS); assay type: physicochemical
Method: Zofenopril calcium was slurried in ACN. Two molar equivalents of HCl were added. The materials were allowed to slurry overnight. […] On DSC this material has an onset at 162° C. This is in contrast to DSC results for zofenopril calcium which has an onset of 250.3° C. […] On the sorption step up to 65% RH, the material gained 1.2% weight. Above this RH, the material gained an additional 36.9% weight. […] Most of the weight was lost on desorption with significant hysteresis.
Nicorandil free base was dissolved in acetone resulting in a clear solution. A molar equivalent of HCl was added stepwise following which there nucleation with rosettes of aciculars and blades that were birefringent. The resulting material was recovered and shown to be nicorandil HCl form A. The XRPD pattern for this sample is shown in FIG. 16. Based on the single crystal structure, nicorandil hydrochloride form A is anhydrous and contains one nicorandil cation and one chloride anion in the asymmetric unit. On the sorption step up to 75% RH, the material gained 0.5% weight. Above that it gained an additional 52% weight. Most of the weight was lost on desoption with significant hysteresis. The material recovered from DVS was shown by XRPD to be form A (FIG. 18). Solubility of nicorandil HCl form A was tested and shown to be >48 mg/mL which was the limit of the test.

[5] = physchem; assay type: physicochemical; conditions: for solubility: thermodynamic from solid
Method: The hygroscopicity of zofenopril sodium material A was tested using DVS.

[6] = following a 5 mg dose; expected value; cited from earlier work
[7] = test system: portal vein rings; experiment: In-vitro rat portal vein ring relaxation (isometric method); assay type: cell-based, Wistar rats; design: Emax: dose or concentration left out as unconfirmed
Method: The portal vein was recovered from Wistar rats weighing approximately 450 gm, and divided into vein segments. Segments were placed in a bath containing approximately 10 mL of Krebs buffer at pH˜7.4. The vehicle used for treatment was 0.2% DMSO. Portal vein rings were pre-contracted and incubated for 60 min at 32° C. Ring relaxation was measured after 10 minutes of exposure to the test compound(s). Chromakalim served as the positive control for the experiment. Ring relaxation was measured by the isometric method as gram changes. Relaxation of the vein rings in this assay are a function of both KATP channel agonization and NO response. In prior published work, about half of the relaxation response could be attributable to KATP channel agonization and half to a NO-mediated response. Each assay was run in duplicate.
Eight combinations of concentration of zofenopril and nicorandil were tested in the assay. These were 80 and 40 μM nicorandil, 100 and 50 μM zofenopril, 12.5 μM zofenopril+10 μM nicorandil, 12.5 μM zofenopril+20 μM nicorandil, 12.5 μM zofenopril+40 μM nicorandil, and 25 μM zofenopril+40 μM nicorandil.

[8] = test system: human umbilical artery segments; conditions: cited from earlier work
[9] = test system: isolated rat hearts; conditions: cited from earlier work
[10] = test system: arterial rings; conditions: 100 μM zofenopril; cited from earlier work

Molecule: CC1(C)Oc2ccc(C#N)cc2C(N2CCCC2=O)C1O (stereo not drawn) [Chromakalim, chromakalim]
- relaxation of aortic rings [1]: near maximal relaxation

Molecule: CCOC(=O)[C@H](CCc1ccccc1)N[C@@H](C)C(=O)N1[C@H](C(=O)O)C[C@@H]2CCC[C@@H]21 [Ramipril, ramipril]
- plasma and myocardial tissue NO2 levels [2]: virtually no effect
- plasma and myocardial tissue H2S levels [3]: did not elevate

- DVS additional weight gain above 75% RH ([4]; above 75% RH): 52 % weight
- DVS weight gain on the sorption step up to 75% RH ([4]; up to 75% RH): 0.5 % weight
- solubility [5]: > 48 mg/mL
Molecule: O=C(NCCO[N+](=O)[O-])c1cccnc1 [nicorandil HCl form A, nicorandil hydrochloride]

Molecule: O=C(NCCO[N+](=O)[O-])c1cccnc1 [nicorandil]
- Cmax [6]: 15 to 16 µM
- relaxation response ([7]; 40 μM nicorandil): maximal relaxation response
- relaxation, % of maximum ([8]; 30 μM nicorandil): about 60%
- relaxation ([8]; 100 μM nicorandil): maximal relaxation

Molecule: C[C@H](CSC(=O)c1ccccc1)C(=O)N1C[C@@H](Sc2ccccc2)C[C@H]1C(=O)O [zofenopril sodium material A, zofenopril sodium]
- pH of the solution at the end of the solubility ([5]; pH 10): 10
- solubility ([5]; pH 10, water): > 48 mg/mL

Molecule: C[C@H](CSC(=O)c1ccccc1)C(=O)N1C[C@@H](Sc2ccccc2)C[C@H]1C(=O)O [zofenopril]
- plasma and myocardial tissue NO2 levels [2]: significantly increased
- plasma and myocardial tissue H2S levels [3]: directly elevating plasma and myocardial tissue H2S levels
- pre-ischemic coronary flow or contractile function [9]: little effect
- reperfusion end diastolic pressure (EDP) and lactate dehydrogenase (LDH) release ([9]; reversed by glyburide and 5-HD): significantly reduced
- reperfusion function ([9]; reversed by glyburide and 5-HD): significantly improved
- maximal response, relaxation of aortic rings [1]: 89%
- relaxation response [10]: maximal relaxation response
- relaxation, % of the positive control ([7]; 50 μM zofenopril): 60%
- relaxation, % of the positive control ([7]; 100 μM zofenopril, positive control chromakalim, 10 min exposure): about 85%
- Emax ([7]; Rattus norvegicus, read-out: relaxation, % of the maximum response for zofenopril): ~70%

- DVS additional weight gain above 65% RH ([4]; above 65% RH, equilibration timed out at all steps): 36.9 % weight
- DVS weight gain on the sorption step up to 65% RH ([4]; up to 65% RH): 1.2 % weight
Molecule: zofenopril calcium chloride [Zofenopril calcium chloride form A]
